Laboratory results from US20230233545A1, “TREATMENT OF ATRIAL DYSFUNCTION” (MyoKardia, Inc., priority 2020, published 2023).
Marks after values point to notes of the source that are not given here.

Legend:
[1] = biological target: T1, recombinant human cardiac S1 myosin (Homo sapiens, UniProt P12883); experiment: Actin-activated ATPase, cardiac S1 myosin; format: biochemical; details: at 3 μM
T1 construct: subfragment-1 (51) myosins from cardiac (recombinant human), skeletal (rabbit psoas) and smooth (chicken gizzard) muscles; made in house
T1 sequence (P12883 1-808 limits assumed): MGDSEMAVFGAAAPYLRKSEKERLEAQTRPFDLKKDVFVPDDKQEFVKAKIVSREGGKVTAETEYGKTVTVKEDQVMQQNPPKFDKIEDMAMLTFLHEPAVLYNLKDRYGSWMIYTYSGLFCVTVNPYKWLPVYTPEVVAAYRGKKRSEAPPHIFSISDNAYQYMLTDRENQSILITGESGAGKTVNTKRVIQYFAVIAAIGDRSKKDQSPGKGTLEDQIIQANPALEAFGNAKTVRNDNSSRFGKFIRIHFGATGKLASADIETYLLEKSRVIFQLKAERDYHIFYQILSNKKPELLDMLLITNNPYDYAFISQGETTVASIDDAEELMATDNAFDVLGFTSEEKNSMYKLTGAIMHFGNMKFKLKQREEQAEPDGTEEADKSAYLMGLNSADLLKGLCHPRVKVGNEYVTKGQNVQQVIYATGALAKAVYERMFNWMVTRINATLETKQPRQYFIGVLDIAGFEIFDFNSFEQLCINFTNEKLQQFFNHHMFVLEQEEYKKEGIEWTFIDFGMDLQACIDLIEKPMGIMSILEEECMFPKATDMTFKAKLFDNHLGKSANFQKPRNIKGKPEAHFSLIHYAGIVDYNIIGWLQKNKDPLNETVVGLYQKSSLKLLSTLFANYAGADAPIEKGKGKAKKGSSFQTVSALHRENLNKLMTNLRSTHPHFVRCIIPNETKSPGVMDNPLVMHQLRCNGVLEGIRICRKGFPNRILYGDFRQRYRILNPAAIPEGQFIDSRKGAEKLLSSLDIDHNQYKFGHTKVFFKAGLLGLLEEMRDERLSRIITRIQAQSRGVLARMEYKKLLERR
T1 sequence (P08590 2-195 partner limits assumed): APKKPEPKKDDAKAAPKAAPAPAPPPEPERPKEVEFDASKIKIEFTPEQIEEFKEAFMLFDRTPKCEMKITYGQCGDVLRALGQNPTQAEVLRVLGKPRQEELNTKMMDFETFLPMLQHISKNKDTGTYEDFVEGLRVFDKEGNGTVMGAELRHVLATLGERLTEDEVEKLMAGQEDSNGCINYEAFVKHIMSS
Description: The ability of Compound I to increase myocardial ATP turnover rates selectively was evaluated using both left atrial (LA) and left ventricular (LV) myofibrils prepared from Yucatan mini-pig hearts, as well as subfragment-1 (51) myosins from cardiac (recombinant human), skeletal (rabbit psoas) and smooth (chicken gizzard) muscles. Pig hearts were harvested, and the left atria/ventricles were freshly excised, dissected, frozen in liquid nitrogen and stored at −80° C. […]
Steady-state ATPase measurements at varying concentrations of Compound I (0-50 μM, in 2% DMSO) were conducted using a coupled enzyme system utilizing pyruvate kinase and lactate dehydrogenase. This enzyme system couples the formation of ADP to the oxidation of NADH leading to an absorbance change at 340 nm. […] All measurements were carried out at 25° C. using a plate reader (SpectraMax; Molecular Devices, LLC, CA, USA) to monitor the change in absorbance as a function of time; data were normalized to a per-second scale as described in Green et al., Science (2016) 351(6273):617-21. […]

[2] = Pharmacokinetics in healthy volunteers; details: human, in vivo
[3] = system: patients with stable HFrEF; experiment: Multiple-ascending dose trial, TTE left atrial parameters; format: in vivo, human
Excerpt: This example describes a study to establish the effect on left atrial dimensions and function of single- and multiple-ascending oral doses of Compound I in ambulatory patients with stable heart failure with reduced ejection fraction (HFrEF). Key eligibility criteria included stable HFrEF of ischemic or nonischemic origin, treated with guideline-directed medical therapy (EF initial requirement during Screening was 20 to 45%, and was later changed by amendment to 15 to 35%). Subjects with active ischemia or severe or valvular heart disease were excluded.
The clinical trial enrolled patients who were 18-80 years of age with a clinical diagnosis of stable chronic heart failure with an LV ejection fraction (LVEF) on echocardiography of 45% or less (subsequently amended to ≤35%), treated with guideline-directed medical therapy, and with good quality echocardiogram images. […] Patients with current or recent AF were also excluded. Detailed inclusion and exclusion criteria are shown below.
This was a randomized, parallel-group, DB, placebo-controlled, adaptive design, sequential ascending (oral) multiple-dose study in stable patients with heart failure. Four MAD Cohorts (A, B, C, D) were enrolled (FIG. 7B). An SRC reviewed results from each cohort and determined the dose and confirmed initial sample size for the subsequent cohort. Additionally, the first 3 patients in each cohort had LVEF>25%; the SRC reviewed preliminary safety data from these patients and decided whether to open cohort enrollment to patients with LVEF<25%.
In Cohort A, Compound I 75 mg twice daily (BID) or matching placebo was administered after a 2-hour fast, and food was not allowed for the following 2 hours. In Cohorts B, C and D, patients received Compound I 50, 75 and 100 mg BID, respectively, with food (Table 5).
Patients were admitted to a clinical research unit for 11 days and underwent 3 consecutive study periods: (1) an initial single-blind placebo run-in period of 2 days (Days 1-2); (2) a randomized (1:3) double-blind treatment period in which patients received 7 days of placebo or Compound I, administered orally twice daily (from Day 3 until Day 9); (3) a follow-up period with patients discharged from the unit on D11, and a final follow-up clinic visit conducted on Day 16. During the 11-day confinement, patients were under continuous supervision.
During the study, multiple evaluations were performed that included: serial TTE assessments (11-14 TTEs per patient on Days 1, 2, 3, 4, 7, 9, 10 and 11); PK sampling (PK sample collected concomitantly with every post-randomization echocardiogram); ECGs (on Days 2, 3, 4, 7, 9, 10, 11 and 16); troponin (collected concomitantly with every post-randomization ECG); and safety laboratory assessments. Confined patients underwent continuous telemetry. Holter monitoring was performed in all patients at baseline (Days 1-2) and at the end of double-blind treatment (Days 7-9). Vital signs were collected daily.

[4] = system: beagle dogs under isoflurane anesthesia, right-atrial burst pacing; experiment: AF inducibility and LA size/function with phenylephrine on board (Example 3)
[5] = plasma concentrations ≥2000 ng/mL, 'up to', p<0.01
[6] = 0.3-0.4 mg/kg IV bolus with 0.3/0.4 mg/kg/hr IV infusion, P<0.05
[7] = IV bolus + infusion with PE vs PE alone, FIG. 4

Cn1cc(S(=O)(=O)[C@@](C)(F)C2CCN(C(=O)Nc3ccon3)CC2)c(C(F)F)n1 [Compound I, (R)-4-(1-((3-(difluoromethyl)-1-methyl-1H-pyrazol-4-yl)sulfonyl)-1-fluoroethyl)-N-(isoxazol-3-yl)piperidine-1-carboxamide]
increase in ATPase rate, cardiac (human) S1 myosin [1]: 1.4 fold | Tmax [2]: 4 to 6 h | half-life [2]: ~15 h | safety and tolerability of drug dosages and exposures tested ([3]; current studies): safe and are well tolerated | LAminVi, mean change from baseline (placebo-corrected) ([3]; plasma concentration 2000-<3500 ng/mL (medium), SE 0.6, p<0.01): −2.1 mL/m^2 | LAEF, mean change from baseline (placebo-corrected) ([3]; plasma concentration 2000-<3500 ng/mL (n = 26, medium), SE 1.3, p<0.05): 3.3% | LAmaxVi, mean change from baseline (placebo-corrected) ([3]; plasma concentration 2000-<3500 ng/mL, SE 0.7): −1.1 mL/m^2 | MR jet area/LA area ratio, mean change from baseline (placebo-corrected) ([3]; plasma concentration 2000-<3500 ng/mL, SE 1.3): −0.6% | LAEF, mean change from baseline (placebo-corrected) ([3]; plasma concentration <2000 ng/mL (n = 30), LS mean difference, SE 1.2, baseline 41 (8)): 2.1% | LAminVi, mean change from baseline (placebo-corrected) ([3]; plasma concentration <2000 ng/mL, SE 0.6, baseline 17 (7), p<0.01): −1.8** mL/m^2 | LAmaxVi, mean change from baseline (placebo-corrected) ([3]; plasma concentration <2000 ng/mL, SE 0.6, baseline 28 (9)): −1.2 mL/m^2 | MR jet area/LA area ratio, mean change from baseline (placebo-corrected) ([3]; plasma concentration <2000 ng/mL, SE 1.2, baseline 8.7 (10.5)): 0.3% | LAFI, mean change from baseline (placebo-corrected) ([3]; plasma concentration <2000 ng/mL, SE 1.5, baseline 26 (13)): 2.6 | LAminVi, mean change from baseline (placebo-corrected) ([3]; plasma concentration ≥3500 ng/mL (high), SE 0.7, p<0.01): −2.4 mL/m^2 | LAEF, mean change from baseline (placebo-corrected) ([3]; plasma concentration ≥3500 ng/mL (n = 13, high), SE 1.6, p<0.05): 3.6% | LAmaxVi, mean change from baseline (placebo-corrected) ([3]; plasma concentration ≥3500 ng/mL, SE 0.8): −1.3 mL/m^2 | MR jet area/LA area ratio, mean change from baseline (placebo-corrected) ([3]; plasma concentration ≥3500 ng/mL, SE 1.6, p<0.05): −4.2* % | decrease in LA minimal volume index compared with placebo [3, 5]: up to −2.4 mL/m2 | increase in LA function index compared with placebo [3, 5]: up to 6.1 | fractional shortening (FS), increase [4, 6]: 13±3% | left-ventricular stroke volume (SV), increase [4, 6]: 16±5% | systolic ejection time (SET), change ([4]; 0.3-0.4 mg/kg IV bolus with 0.3/0.4 mg/kg/hr IV infusion, prolonged, P<0.05): 10±3% | SBP under Compound I ([4]; 0.3-0.4 mg/kg IV bolus with IV infusion, PE on board, systemic pressures preserved): 135.7±6.2 mmHg | LV contractility (ΔEF) ([4]; Compound I, Example 3 protocol, FIG. 6): increase LV contractility | atrial emptying fraction (LA EF) [4, 7]: increasing the atrial emptying fraction | left-atrial size (LA Volmin) [4, 7]: decreased left-atrial size | AF inducibility (e.g., AF duration) ([4]; IV bolus + infusion with PE vs PE alone, burst pacing, FIG. 4): decreasing AF inducibility
